This note sets out measurements from ChEMBL document CHEMBL1201862, “PubChem BioAssay data set” (2004).

Each structure is given as a SMILES string.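 All cell lines were grown in 96-well plates and treated with compound for 48 hours. The concentration for 50% growth inhibition is given as GI50.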 The source made the active and inactive calls. Rule as the data show it: active = GI50 up to about 1.1 µM and inactive = higher.

What all share (assay): NCI tumour cell line growth inhibition, 48 h
For assay [1], the system named is Hs-578T.
The subject of assay [2] is EKVX.
Assay [3] relates to 786-0.
The subject of assay [4] is T47D.
The subject of assay [5] is RPMI-8226.
Assay [6] has as its system HCT-15.
Assay [7] deals with OVCAR-5.
Assay [8] deals with U-251.
The subject of assay [9] is TK-10.
The subject of assay [10] is COLO 205.
Assay [11] has as its system DU-145.
The test system of assay [12] is SF-539.
For assay [13], the system named is PC-3.
Assay [14] concerns SK-OV-3.
Assay [15] concerns SF-295.
For assay [16], the system named is UO-31.
The subject of assay [17] is SNB-75.
Assay [18] relates to MCF7.
Assay [19] deals with NCI-H522.

With `OC1(c2ccc(Cl)cc2)c2ccccc2C2=Nc3ccccc3CN21` (centres undefined), the GI50 in assay [1] is 23 µM (inactive); in assay [2] it was > 45.2 µM (inactive); in assay [3], 13.1 µM (inactive); in assay [4] it was 45.5 µM (inactive); in [5], 33.4 µM (inactive); in assay [6], 30.8 µM. The GI50 was > 75.2 µM (inactive) in [7]; 23.7 µM (inactive) in assay [8]; > 95.5 µM (inactive) in [9]; > 69.2 µM (inactive) in assay [10]; 36.2 µM (inactive) in assay [11]; 39.6 µM (inactive) in [12]. The GI50 in [13] was 45.8 µM (inactive); in [14], 38.5 µM (inactive); in assay [15] it was 20.4 µM (inactive); in assay [16], 34.4 µM (inactive); in assay [17], 17.8 µM (inactive); in assay [18], 21.9 µM (inactive). The GI50 in assay [19] is 25.1 µM (inactive).

In the case of `C[N+](C)(C)CC1Cc2ccccc2C1=O` (centres undefined), the GI50 in assay [1] was > 10 µM (inactive); in assay [2] it was > 10 µM (inactive); in [3], 3.32 µM (inactive); in assay [4] it was 2.51 µM (inactive); in assay [5], 1.48 µM (inactive); in assay [6] it was 4.53 µM. The GI50 was > 10 µM (inactive) in [7]; > 10 µM (inactive) in assay [8]; > 8.36 µM (inactive) in assay [9]; 2.93 µM (inactive) in assay [10]; > 10 µM (inactive) in [11]; > 10 µM (inactive) in assay [12]. The GI50 is > 10 µM (inactive) in assay [13]; > 10 µM (inactive) in [14]; > 10 µM (inactive) in [15]; > 10 µM (inactive) in assay [16]; > 10 µM (inactive) in [17]; 2.07 µM (inactive) in assay [18]. Further, the GI50 in [19] is 2.36 µM (inactive).

As to `C=C(C)[C@@H]1CCC2=C[C@H](OC2=O)[C@@]2(C)C[C@@H]2C(=O)/C=C(/C)C(=O)[C@H]1OC(C)=O`, the GI50 in assay [1] was 16.9 µM (inactive); in assay [2], 21.2 µM (inactive); in assay [3], 11.4 µM (inactive); in assay [4] it was 5.64 µM (inactive); in [5], 4.12 µM (inactive); in [6], 12.7 µM. The GI50 in [7] is 15.5 µM (inactive); in [8], 28.6 µM (inactive); in assay [9], 24.5 µM (inactive); in assay [10], 18.3 µM (inactive); in assay [11] it was 5.97 µM (inactive); in assay [12], 7.13 µM (inactive). Besides, the GI50 is 13 µM (inactive) in assay [13]; > 51.9 µM (inactive) in assay [14]; 42.6 µM (inactive) in [15]; 10.9 µM (inactive) in assay [16]; 38.9 µM (inactive) in assay [17]; 4.52 µM (inactive) in [18]. Besides, the GI50 in assay [19] is 4.3 µM (inactive).

`C[C@@H](c1ccccc1)C(CC#N)[C@H]1CCC[C@]1(O)C#Cc1ccc2c(c1)OCO2` (some centres undefined): the GI50 was 20.8 µM (inactive) in assay [1]; 19.5 µM (inactive) in assay [2]; 17.5 µM (inactive) in assay [3]; 15.7 µM (inactive) in [4]; 23.2 µM (inactive) in assay [5]; 16 µM in assay [6]. For the same compound, the GI50 in assay [7] is 16.6 µM (inactive); in [8] it was 16.9 µM (inactive); in [9], 16 µM (inactive); in [10], 18.2 µM (inactive); in assay [11], 16.8 µM (inactive); in [12], 10.6 µM (inactive). For the same compound, the GI50 was 15.9 µM (inactive) in assay [13]; 18.1 µM (inactive) in assay [14]; 18.1 µM (inactive) in [15]; 14.4 µM (inactive) in [16]; 16.5 µM (inactive) in assay [17]; 18.4 µM (inactive) in assay [18]. Also, the GI50 in assay [19] was 15.3 µM (inactive).

`OCCNC1c2cc(Cl)ccc2-c2c(Cl)cc(Cl)cc21` (centres undefined): the GI50 in [1] is 33.1 µM (inactive); in [2] it was 11.6 µM (inactive); in [3], 27.3 µM (inactive); in assay [4], 36.1 µM (inactive); in assay [5] it was 33.1 µM (inactive); in [6], 33.7 µM. For the same compound, the GI50 is 42.2 µM (inactive) in assay [7]; 26.3 µM (inactive) in assay [8]; 39.7 µM (inactive) in [9]; 54.8 µM (inactive) in [10]; > 100 µM (inactive) in assay [11]; 47.9 µM (inactive) in assay [12]. For the same compound, the GI50 in [13] is 23.3 µM (inactive); in assay [14], 42 µM (inactive); in [15], 35.6 µM (inactive); in [16] it was 3.37 µM (inactive); in [17] it was 37.9 µM (inactive); in assay [18], 17.2 µM (inactive). Further, the GI50 in [19] is 27.8 µM (inactive).

As to `O=c1[nH]c(=O)n(C2COC(CO)C2O)cc1F` (centres undefined), the GI50 was > 100 µM (inactive) in assay [1]; 89.9 µM (inactive) in assay [2]; 70 µM (inactive) in assay [3]; 50.6 µM (inactive) in assay [4]; 36.5 µM (inactive) in assay [5]; 16.4 µM in [6]. The GI50 in [7] was > 100 µM (inactive); in [8], 72.9 µM (inactive); in assay [9], 68.1 µM (inactive); in assay [10], 25.1 µM (inactive); in assay [11], 29.8 µM (inactive); in assay [12], 3.52 µM (inactive). For the same compound, the GI50 in assay [13] is 36.1 µM (inactive); in assay [14], 74.6 µM (inactive); in assay [15], 30.5 µM (inactive); in [16], 14.6 µM (inactive); in assay [17], 31 µM (inactive); in [18] it was 8.41 µM (inactive). Moreover, the GI50 in assay [19] was 43.7 µM (inactive).

As for `CCCC[C@@H](C)/C=C1\CN2CCC[C@H]2[C@@](C)(O)[C@@H]1O`, the GI50 in assay [1] is > 100 µM (inactive); in assay [2], > 100 µM (inactive); in assay [3], 45.2 µM (inactive); in [4], 30.8 µM (inactive); in assay [5], > 100 µM (inactive); in assay [6], more than 100 µM. Besides, the GI50 in assay [7] was > 100 µM (inactive); in assay [8], 66.2 µM (inactive); in assay [9] it was > 100 µM (inactive); in assay [10] it was > 100 µM (inactive); in [11], 17.3 µM (inactive); in [12], 62.2 µM (inactive). The GI50 was > 100 µM (inactive) in assay [13]; 73.3 µM (inactive) in assay [14]; 55.7 µM (inactive) in [15]; 50.7 µM (inactive) in [16]; 20.2 µM (inactive) in assay [17]; 80.2 µM (inactive) in [18]. Also, in assay [19], the GI50 is 56.1 µM (inactive).

On to `O=[N+]([O-])/C(C(Cl)=C(Cl)Cl)=C(\N1CCCCC1)n1nnc2ccccc21`, for which the GI50 in [1] is 32.9 µM (inactive); in [2], 8.47 µM (inactive); in [3], 18.5 µM (inactive); in assay [4] it was 33.3 µM (inactive); in [5] it was 17.2 µM (inactive); in [6], 17.8 µM. For the same compound, the GI50 was 17.8 µM (inactive) in [7]; 16.9 µM (inactive) in assay [8]; 18.2 µM (inactive) in [9]; 17.8 µM (inactive) in assay [10]; 18.7 µM (inactive) in assay [11]; 17.3 µM (inactive) in assay [12]. The GI50 in assay [13] is 17.6 µM (inactive); in assay [14], 24.9 µM (inactive); in assay [15], 17.5 µM (inactive); in [16] it was 18.2 µM (inactive); in assay [17], 25.6 µM (inactive); in assay [18], 25.4 µM (inactive). For the same compound, the GI50 in assay [19] is 20.3 µM (inactive).

Consider `CCOC(=O)C(=O)C(=O)NN(C)C1=NCCN1`, for which the GI50 in [1] was > 100 µM (inactive); in assay [2] it was > 100 µM (inactive); in [3], > 100 µM (inactive); in assay [4], > 100 µM (inactive); in assay [5] it was > 100 µM (inactive); in [6], more than 100 µM. Moreover, the GI50 in [7], in assay [8], in assay [9], in [10], in [11] and in assay [12] was > 100 µM (inactive) each time. The GI50 in assay [13], in [14], in assay [15], in assay [16], in [17] and in [18] was > 100 µM (inactive) each time. Further, in assay [19], the GI50 was > 100 µM (inactive).

With `CCC(=O)NC(Nc1cccc(F)c1C)(C(F)(F)F)C(F)(F)F`, the GI50 in assay [1] is 54.5 µM (inactive); in assay [2] it was > 100 µM (inactive); in assay [3], > 100 µM (inactive); in assay [4], > 100 µM (inactive); in [5], > 100 µM (inactive); in [6], more than 100 µM. In addition, the GI50 in assay [7], in assay [8], in [9], in assay [10], in assay [11] and in [12] was > 100 µM (inactive) each time. The GI50 in assay [13] was > 100 µM (inactive); in assay [14], > 100 µM (inactive); in [15], > 100 µM (inactive); in [16], 94.6 µM (inactive); in [17], > 100 µM (inactive); in assay [18], > 100 µM (inactive). For the same compound, the GI50 in assay [19] was > 100 µM (inactive).

For `CCOC(=O)C(NC(=O)c1cccc(Cl)c1)(N1CCN(c2cc3c(cc2F)c(=O)c(C(=O)O)cn3CC)CC1)C(F)(F)F` (centres undefined), the GI50 in [1] is 15.6 µM (inactive); in [2], 17.1 µM (inactive); in [3] it was 14.7 µM (inactive); in assay [4], 19.4 µM (inactive); in [5], 10.9 µM (inactive); in assay [6], 17.6 µM. For the same compound, the GI50 in assay [7] is 17.4 µM (inactive); in assay [8] it was 6.7 µM (inactive); in [9], 21.3 µM (inactive); in assay [10] it was 18.1 µM (inactive); in [11], 25.4 µM (inactive); in assay [12], 15.2 µM (inactive). Moreover, the GI50 in assay [13] is 13.4 µM (inactive); in [14], 23.9 µM (inactive); in assay [15], 18.7 µM (inactive); in assay [16], 19.2 µM (inactive); in assay [17], 21.4 µM (inactive); in assay [18], 13.8 µM (inactive). For the same compound, the GI50 in assay [19] is 4.17 µM (inactive).
